Measured values taken from patent US20220187275A1, “SYSTEMS AND METHODS FOR DIRECTED FORMATION OF SIZE-CONTROLLED MULTI-CELLULAR STRUCTURES AND MEASUREMENT OF FORCES GENERATED BY THE SAME” (Forcyte Biotechnologies, Inc., priority 2019, published 2022).

Tested on: primary human airway smooth muscle cells
Settings: 384-well plate, 24 hours serum starvation, histamine final concentration 100 micromolar, imaged at 1 minute intervals
Experimental: To achieve the result depicted in FIG. 9, approximately 2000-2500 primary human airway smooth muscle cells were seeded into each of several wells on a microplate comprising 384 wells each with at least 60 MCS-supporting micropatterns deposed on their surface, in Ham's F12 medium supplemented with 10% serum and incubated for 5 days. The MCS-supporting micropatterns comprised a fluorophore-conjugated material comprising human fibrinogen conjugated to Alexa Fluor® 546 dye.
On day 5, MCS comprising the primary airway smooth muscle cells were observed within the wells. At this point, the serum-supplemented medium was replaced with serum-free medium to induce the contractile phenotype in the MCS. […] This step was taken to maximize contractile responsiveness to agonist in the next step.
After 24 hours of serum starvation, the microplate containing the MCS was imaged using a fluorescent microscope prior to any chemical addition in the fluorescent channel that corresponds to the fluorophore used in the MCS-supporting micropattern.

NCCc1c[nH]cn1 [histamine]
contraction of the MCS (size of MCS-supporting micropatterns relative to baseline contracted state) after addition of agonist: contraction
